# Measurements published in PubChem BioAssay (NCI).
#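 Cells were grown in 96-well plates and exposed to each compound for 48 hours at five concentrations; endpoints were interpolated linearly between bracketing concentrations, or set to the highest concentration if not reached. Here, GI50 denotes the concentration required for 50% inhibition of growth. The concentration for full growth arrest is given as TGI.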
# Assays:
# Assay in all cases: NCI tumour cell line growth inhibition, 48 h
# [1] = tested on: MDA-N
# [2] = tested on: M19-MEL melanoma
# [3] = tested on: KM20L2 colon
# [4] = tested on: DLD-1 colon
# [5] = tested on: SNB-78 CNS
# [6] = tested on: DMS 114 small cell lung
# [7] = tested on: HOP-18 NSCLC
# [8] = tested on: XF 498 CNS
# [9] = tested on: RXF-631 renal
SMILES,TGI [2],TGI [3],TGI [4],TGI [5],TGI [6],TGI [7],TGI [8],also measured
c1cnc2c(c1)Nc1cnncc1S2,–,–,–,–,–,–,–,TGI [1]: > 100 µM
C=C=[CH][Sn]([c]1ccccc1)([c]1ccccc1)[c]1ccccc1,3.06 µM,4 µM,4.15 µM,9.29 µM,2.94 µM,–,–,GI50 [2]: 1.62 µM; GI50 [3]: 2.02 µM; GI50 [4]: 1.48 µM; GI50 [5]: 3.1 µM; GI50 [6]: 1.52 µM
CCOC(=O)CNC(=O)C(CSC(=O)N(C)O)NC(=O)CCC(N)C(=O)O (stereo not drawn),> 2000 µM,> 2000 µM,–,–,–,> 2000 µM,–,GI50 [7]: > 2000 µM; GI50 [2]: > 2000 µM; GI50 [3]: > 2000 µM; GI50 [4]: > 2000 µM; GI50 [6]: > 2000 µM
NNC(=S)N/N=C/C(Cl)=C(\Cl)C(=O)O,> 100 µM,> 100 µM,> 100 µM,> 100 µM,> 100 µM,–,> 100 µM,–
COC(=O)C(=O)C1CCCCC(C2=NC3NN=C(N)N3C2=O)C1=O (stereo not drawn),> 100 µM,> 100 µM,> 100 µM,–,> 100 µM,> 100 µM,> 100 µM,TGI [9]: > 100 µM
NC(=O)CCC(NC(=O)C(F)(F)F)C(=O)O (stereo not drawn),> 100 µM,> 100 µM,> 100 µM,> 100 µM,> 100 µM,> 100 µM,> 100 µM,–
CC12C(=O)N(CCN)C(=O)C1C1c3ccccc3C2c2ccccc21 (stereo not drawn),> 100 µM,> 100 µM,> 100 µM,> 100 µM,> 100 µM,> 100 µM,> 100 µM,–
C[C@]12CCCC(=O)C1C[C@H](C(=O)O)CC2 (stereo partly drawn),> 100 µM,> 100 µM,> 100 µM,–,> 100 µM,> 100 µM,> 100 µM,TGI [9]: > 100 µM
Cc1cccc(N=C2NC(=O)C(CC(=O)Nc3ccc(Cl)cc3C)S2)c1 (stereo not drawn),> 100 µM,> 100 µM,> 100 µM,–,> 100 µM,> 100 µM,–,TGI [9]: > 100 µM
Nc1cccc2nsnc12,–,–,–,–,–,–,–,TGI [1]: > 100 µM
CCc1oc2ccc(OC)c3c2c1C=CC=C3,> 100 µM,–,> 100 µM,> 100 µM,–,–,–,–
Cc1cc(=O)[nH]c(CNC(=O)Cc2ccccc2)n1,> 100 µM,> 100 µM,> 100 µM,> 100 µM,> 100 µM,–,> 100 µM,–
CS(=O)(=O)c1nc(Cl)c(Cl)c(C#N)c1Cl,–,20.8 µM,3.13 µM,> 36 µM,32.2 µM,11.5 µM,7.93 µM,TGI [9]: 38.9 µM; TGI [1]: 3.5 µM
CC12OC3CC(O1)C1(C=O)C4CCC5(C)C(c6ccc(=O)oc6)CCC5(O)C4CCC1(C3)O2 (stereo not drawn),1.16 µM,1.31 µM,0.483 µM,3.66 µM,0.191 µM,0.748 µM,–,–
O=C1c2ccccc2C(=O)c2c(NC(=O)c3ccc4c5c(ncnc35)-c3ccccc3C4=O)cccc21,–,–,–,–,–,–,–,TGI [1]: > 100 µM
CCC[CH2][Sn]1([CH2]CCC)[O]C(=O)c2cc(C)ccc2[O]1,–,2.64 µM,1.83 µM,1.01 µM,0.771 µM,–,–,GI50 [3]: 1.35 µM; GI50 [4]: 0.537 µM; GI50 [5]: 0.368 µM
NC(=O)NC(=O)C1CCCCC1C(=O)O (stereo not drawn),–,–,–,–,–,–,–,TGI [1]: > 100 µM
O=[N+]([O-])c1cc(/C=N/NS(=O)(=O)c2ccc(F)cc2)c(O)c([N+](=O)[O-])c1,> 100 µM,59.3 µM,> 100 µM,> 100 µM,> 100 µM,> 100 µM,–,–
C[N+]1=c2c3cccc4cccc(c(=O)n2CCC1)c43,35.8 µM,47.2 µM,46.9 µM,94.6 µM,38.7 µM,> 100 µM,38 µM,–

SMILES,TGI [2],TGI [3],TGI [4],TGI [5],TGI [6],TGI [7],TGI [8],also measured
O=C1c2cccc3cc([N+](=O)[O-])cc(c23)C(=O)N1O,–,–,–,–,–,–,–,TGI [1]: > 100 µM
CP(C)C.[Ag][I],> 100 µM,> 100 µM,> 100 µM,96.1 µM,> 100 µM,> 100 µM,30.9 µM,TGI [9]: > 100 µM
CCOC(=O)N1CCC(=O)C[C@@H]1C/C=C/P1(=O)O[C@H](c2ccccc2)C(C)N1C(C)C (stereo partly drawn),> 100 µM,> 100 µM,–,> 100 µM,> 100 µM,–,–,–
N#Cc1ccccc1Nc1ccccc1S,> 100 µM,–,> 100 µM,> 100 µM,42.8 µM,> 100 µM,40 µM,TGI [9]: > 100 µM
COc1cc2c3c(c1O)C1(C=CC(=O)C=C1)CC3N(C)CC2 (stereo not drawn),–,–,–,–,–,–,–,TGI [1]: 24.2 µM
O=C1c2ccccc2C(=O)c2sc(Nc3ccc(Cl)c(Cl)c3)nc21,2.44 µM,41.7 µM,4.66 µM,6.68 µM,3.26 µM,14.3 µM,6.04 µM,TGI [9]: 31.4 µM
CC[C@@]1(OC(=O)CN)C(=O)OCc2c1cc1n(c2=O)Cc2cc3c(N)c4c(cc3nc2-1)OCO4,–,–,–,–,–,–,–,GI50 [1]: 0.0127 µM; TGI [1]: > 100 µM
COC(=O)C1=Cc2c(OC)cc(OC)c(OC)c2[C@H](c2cc(OC)c(OC)cc2OC)C1C(=O)OC (stereo partly drawn),> 100 µM,> 100 µM,> 100 µM,> 100 µM,> 100 µM,–,> 100 µM,TGI [9]: > 100 µM
CC[O-].CC[O-].O=C([CH-]C(=O)c1ccccc1)c1ccccc1.O=C([CH-]C(=O)c1ccccc1)c1ccccc1.[Ti+4],–,> 100 µM,–,–,–,–,–,GI50 [3]: > 100 µM
OC(c1ccccc1)c1c(-c2ccccc2)oc(-c2ccccc2)c1C(O)c1ccccc1 (stereo not drawn),–,–,–,–,–,–,–,TGI [1]: 24.6 µM
CCOC(=O)C1CC/C(=C(/C#N)C(=O)OC)N1 (stereo not drawn),> 100 µM,> 100 µM,> 100 µM,> 100 µM,> 100 µM,–,> 100 µM,–
O=P1(O)c2ccccc2CS(=O)(=O)Cc2ccccc21,–,–,–,–,–,–,–,TGI [1]: > 100 µM
O=C1CCC(=O)C(C(=O)CCC(=O)Nc2cccc(Cl)c2)C1 (stereo not drawn),> 100 µM,> 100 µM,> 100 µM,–,–,> 100 µM,> 100 µM,–
OC1C2C=CCC1CCC2 (stereo not drawn),> 100 µM,> 100 µM,> 100 µM,> 100 µM,> 100 µM,> 100 µM,> 100 µM,TGI [9]: > 100 µM
Cc1cc2c(cc1C)[n+]([O-])c(-c1c(Cl)cccc1Cl)c(N)[n+]2[O-],> 100 µM,> 100 µM,> 100 µM,> 100 µM,98.7 µM,86.4 µM,–,TGI [9]: 35.7 µM
CC(C)NC(=O)O/N=C1\CCC2[C@@H]3CC=C4C[C@@H](OC(=O)NC(C)C)CC[C@]4(C)C3CC[C@]12C (stereo partly drawn),2.81 µM,9.59 µM,> 25.3 µM,6.77 µM,1.98 µM,4.67 µM,–,TGI [9]: 3.57 µM
CCOC(=O)C1(Cc2ccc3ccccc3c2)CCCCCN1 (stereo not drawn),93.8 µM,57 µM,56.9 µM,> 100 µM,87.4 µM,> 100 µM,41.2 µM,–
CCOc1ccc(NC(=O)CCC(=O)NN)cc1,–,> 100 µM,> 100 µM,> 100 µM,> 100 µM,> 100 µM,95 µM,–
